In patent publication US20240246942A1, “KINASE INHIBITORS FOR THE TREATMENT OF NEURODEGENERATIVE DISEASES” (priority 2020, published 2024):

Experiments:
Assay in all cases: biochemical
[1] = molecular target: T1, panel of 374 wild-type kinases (Homo sapiens, UniProt Q9H3Y6); conditions: read-out: % Enzyme Activity (relative to DMSO controls), kinase SRMS
T1 construct: purchased Reaction Biology Corporation

[2] = molecular target: T2, panel of 374 wild-type kinases (Homo sapiens, UniProt Q9UEW8); conditions: kinase STK39/STLK3, read-out: % Enzyme Activity (relative to DMSO controls)
T2 construct: purchased Reaction Biology Corporation

[3] = molecular target: T3, panel of 374 wild-type kinases (Homo sapiens, UniProt P06241); conditions: read-out: % Enzyme Activity (relative to DMSO controls), FYN
T3 construct: purchased Reaction Biology Corporation
T3 sequence (P06241 whole entry): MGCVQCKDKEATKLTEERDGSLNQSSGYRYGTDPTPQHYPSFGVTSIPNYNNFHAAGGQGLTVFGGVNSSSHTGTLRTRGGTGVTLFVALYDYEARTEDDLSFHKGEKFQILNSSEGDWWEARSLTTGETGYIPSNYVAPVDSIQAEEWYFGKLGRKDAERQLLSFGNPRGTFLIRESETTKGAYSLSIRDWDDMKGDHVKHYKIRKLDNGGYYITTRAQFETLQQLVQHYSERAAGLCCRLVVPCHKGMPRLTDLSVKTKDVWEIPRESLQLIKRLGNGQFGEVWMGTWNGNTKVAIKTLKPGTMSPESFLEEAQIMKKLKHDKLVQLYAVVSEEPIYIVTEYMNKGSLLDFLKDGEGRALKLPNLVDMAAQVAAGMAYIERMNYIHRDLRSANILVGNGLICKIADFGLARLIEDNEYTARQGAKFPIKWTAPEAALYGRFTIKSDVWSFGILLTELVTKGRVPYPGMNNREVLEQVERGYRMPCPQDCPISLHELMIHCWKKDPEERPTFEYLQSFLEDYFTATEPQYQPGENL

[4] = molecular target: T4, panel of 374 wild-type kinases (Homo sapiens, UniProt O95835); conditions: read-out: % Enzyme Activity (relative to DMSO controls), LATS1
T4 construct: purchased Reaction Biology Corporation
T4 sequence (O95835 1-1130): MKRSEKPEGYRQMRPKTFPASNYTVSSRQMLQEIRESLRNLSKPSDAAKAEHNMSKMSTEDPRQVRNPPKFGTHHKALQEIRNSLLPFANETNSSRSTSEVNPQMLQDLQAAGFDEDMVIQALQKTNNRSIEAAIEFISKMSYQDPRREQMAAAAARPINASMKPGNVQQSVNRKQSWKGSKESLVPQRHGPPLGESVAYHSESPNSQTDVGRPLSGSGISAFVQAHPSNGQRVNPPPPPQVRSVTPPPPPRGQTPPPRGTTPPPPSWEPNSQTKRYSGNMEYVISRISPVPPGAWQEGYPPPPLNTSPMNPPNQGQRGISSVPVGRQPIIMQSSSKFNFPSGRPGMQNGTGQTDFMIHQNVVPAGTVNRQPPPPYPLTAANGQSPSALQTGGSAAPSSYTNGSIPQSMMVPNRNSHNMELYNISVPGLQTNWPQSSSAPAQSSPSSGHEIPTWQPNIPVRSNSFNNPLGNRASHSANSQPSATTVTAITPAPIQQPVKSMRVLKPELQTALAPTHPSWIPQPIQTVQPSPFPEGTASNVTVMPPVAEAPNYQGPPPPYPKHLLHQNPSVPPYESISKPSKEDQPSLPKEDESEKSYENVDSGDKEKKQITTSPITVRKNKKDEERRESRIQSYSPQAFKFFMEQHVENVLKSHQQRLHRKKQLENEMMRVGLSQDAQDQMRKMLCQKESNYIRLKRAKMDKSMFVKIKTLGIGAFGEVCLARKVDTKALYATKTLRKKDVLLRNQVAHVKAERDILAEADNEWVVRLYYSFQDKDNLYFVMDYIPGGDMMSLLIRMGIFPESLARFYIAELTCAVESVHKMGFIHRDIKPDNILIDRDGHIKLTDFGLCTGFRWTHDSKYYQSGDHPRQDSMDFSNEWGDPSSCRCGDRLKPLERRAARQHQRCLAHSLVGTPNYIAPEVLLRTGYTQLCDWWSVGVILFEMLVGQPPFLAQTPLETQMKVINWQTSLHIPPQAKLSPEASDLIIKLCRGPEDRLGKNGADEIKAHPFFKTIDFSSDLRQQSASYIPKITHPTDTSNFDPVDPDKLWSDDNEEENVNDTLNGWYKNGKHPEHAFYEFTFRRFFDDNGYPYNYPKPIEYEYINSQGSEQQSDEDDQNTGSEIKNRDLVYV

[5] = molecular target: T5, panel of 374 wild-type kinases (Homo sapiens, UniProt Q96KB5); conditions: read-out: % Enzyme Activity (relative to DMSO controls), kinase PBK/TOPK
T5 construct: purchased Reaction Biology Corporation
T5 sequence (Q96KB5 1-322): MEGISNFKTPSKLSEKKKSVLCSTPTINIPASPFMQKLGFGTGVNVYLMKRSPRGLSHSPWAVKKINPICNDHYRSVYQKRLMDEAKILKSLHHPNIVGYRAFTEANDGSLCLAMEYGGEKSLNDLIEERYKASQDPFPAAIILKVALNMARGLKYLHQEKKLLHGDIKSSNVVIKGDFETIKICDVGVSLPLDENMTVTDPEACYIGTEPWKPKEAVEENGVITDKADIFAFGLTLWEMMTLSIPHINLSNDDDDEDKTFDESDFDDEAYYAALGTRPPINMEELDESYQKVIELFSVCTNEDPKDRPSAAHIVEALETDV

[6] = molecular target: T6, panel of 374 wild-type kinases (Homo sapiens, UniProt Q9H4A3); conditions: read-out: % Enzyme Activity (relative to DMSO controls), kinase WNK1
T6 construct: purchased Reaction Biology Corporation
T6 sequence (Q9H4A3 whole entry): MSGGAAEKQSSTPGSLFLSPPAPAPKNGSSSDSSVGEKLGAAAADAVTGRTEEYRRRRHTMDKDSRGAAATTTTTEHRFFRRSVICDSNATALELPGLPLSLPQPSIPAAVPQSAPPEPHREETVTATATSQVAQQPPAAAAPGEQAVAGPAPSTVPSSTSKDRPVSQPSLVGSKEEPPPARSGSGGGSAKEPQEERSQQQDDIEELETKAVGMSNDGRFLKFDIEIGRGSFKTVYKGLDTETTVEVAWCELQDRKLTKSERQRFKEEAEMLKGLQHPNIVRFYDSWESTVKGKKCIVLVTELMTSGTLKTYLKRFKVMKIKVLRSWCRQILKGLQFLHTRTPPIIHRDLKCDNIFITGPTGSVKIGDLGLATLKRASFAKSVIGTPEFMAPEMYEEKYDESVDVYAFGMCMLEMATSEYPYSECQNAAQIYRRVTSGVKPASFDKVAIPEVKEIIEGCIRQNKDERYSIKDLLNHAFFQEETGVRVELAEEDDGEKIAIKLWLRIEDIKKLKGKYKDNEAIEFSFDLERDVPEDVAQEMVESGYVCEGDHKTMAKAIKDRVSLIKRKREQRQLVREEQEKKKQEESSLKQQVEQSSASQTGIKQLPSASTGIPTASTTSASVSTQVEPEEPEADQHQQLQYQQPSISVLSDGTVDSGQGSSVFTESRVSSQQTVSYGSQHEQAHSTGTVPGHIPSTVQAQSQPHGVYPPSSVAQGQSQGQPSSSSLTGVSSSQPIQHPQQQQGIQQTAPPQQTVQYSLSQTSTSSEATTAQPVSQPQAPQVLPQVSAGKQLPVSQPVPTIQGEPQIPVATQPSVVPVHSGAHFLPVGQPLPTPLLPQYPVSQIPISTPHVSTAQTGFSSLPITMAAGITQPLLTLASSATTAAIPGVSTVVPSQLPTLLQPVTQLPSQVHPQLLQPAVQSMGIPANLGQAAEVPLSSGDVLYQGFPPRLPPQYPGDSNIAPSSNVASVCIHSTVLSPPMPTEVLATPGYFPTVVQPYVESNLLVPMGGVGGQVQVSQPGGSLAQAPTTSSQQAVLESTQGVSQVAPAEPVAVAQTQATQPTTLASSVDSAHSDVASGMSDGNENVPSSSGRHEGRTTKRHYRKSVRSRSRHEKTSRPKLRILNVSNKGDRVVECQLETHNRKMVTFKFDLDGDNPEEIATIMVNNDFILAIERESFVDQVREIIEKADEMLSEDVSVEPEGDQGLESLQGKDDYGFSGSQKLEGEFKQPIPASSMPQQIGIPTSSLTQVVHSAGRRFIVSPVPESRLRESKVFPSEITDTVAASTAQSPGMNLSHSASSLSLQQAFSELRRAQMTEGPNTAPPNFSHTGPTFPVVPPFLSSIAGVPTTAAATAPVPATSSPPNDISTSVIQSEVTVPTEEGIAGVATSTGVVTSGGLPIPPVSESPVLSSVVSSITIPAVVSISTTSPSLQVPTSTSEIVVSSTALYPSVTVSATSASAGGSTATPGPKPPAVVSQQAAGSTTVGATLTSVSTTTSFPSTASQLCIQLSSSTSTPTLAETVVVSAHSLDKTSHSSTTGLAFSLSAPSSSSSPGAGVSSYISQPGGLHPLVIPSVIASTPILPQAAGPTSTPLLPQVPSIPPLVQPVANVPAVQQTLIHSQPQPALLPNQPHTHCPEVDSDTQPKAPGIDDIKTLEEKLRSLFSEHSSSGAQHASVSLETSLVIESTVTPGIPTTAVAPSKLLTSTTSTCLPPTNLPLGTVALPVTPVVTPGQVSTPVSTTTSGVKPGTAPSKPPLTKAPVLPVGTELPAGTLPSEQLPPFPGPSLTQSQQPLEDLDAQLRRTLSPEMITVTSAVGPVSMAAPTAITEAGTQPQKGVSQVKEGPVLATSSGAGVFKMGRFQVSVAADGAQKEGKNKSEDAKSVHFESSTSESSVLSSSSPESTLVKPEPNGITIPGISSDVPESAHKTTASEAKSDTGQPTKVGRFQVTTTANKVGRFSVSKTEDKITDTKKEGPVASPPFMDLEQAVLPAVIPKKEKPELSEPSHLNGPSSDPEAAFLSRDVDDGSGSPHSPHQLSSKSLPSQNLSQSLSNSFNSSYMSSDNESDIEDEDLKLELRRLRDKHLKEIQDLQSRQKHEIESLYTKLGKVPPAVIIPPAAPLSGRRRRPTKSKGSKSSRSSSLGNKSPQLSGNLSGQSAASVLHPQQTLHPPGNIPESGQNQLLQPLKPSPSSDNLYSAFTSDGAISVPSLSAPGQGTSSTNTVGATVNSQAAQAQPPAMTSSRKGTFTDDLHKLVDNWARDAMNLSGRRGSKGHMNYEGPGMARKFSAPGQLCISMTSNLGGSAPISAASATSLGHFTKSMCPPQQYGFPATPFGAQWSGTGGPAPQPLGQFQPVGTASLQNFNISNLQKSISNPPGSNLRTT

[7] = molecular target: T7, panel of 374 wild-type kinases (Homo sapiens, UniProt Q32MK0); conditions: read-out: % Enzyme Activity (relative to DMSO controls), MYLK3
T7 construct: purchased Reaction Biology Corporation
T7 sequence (Q32MK0 1-819): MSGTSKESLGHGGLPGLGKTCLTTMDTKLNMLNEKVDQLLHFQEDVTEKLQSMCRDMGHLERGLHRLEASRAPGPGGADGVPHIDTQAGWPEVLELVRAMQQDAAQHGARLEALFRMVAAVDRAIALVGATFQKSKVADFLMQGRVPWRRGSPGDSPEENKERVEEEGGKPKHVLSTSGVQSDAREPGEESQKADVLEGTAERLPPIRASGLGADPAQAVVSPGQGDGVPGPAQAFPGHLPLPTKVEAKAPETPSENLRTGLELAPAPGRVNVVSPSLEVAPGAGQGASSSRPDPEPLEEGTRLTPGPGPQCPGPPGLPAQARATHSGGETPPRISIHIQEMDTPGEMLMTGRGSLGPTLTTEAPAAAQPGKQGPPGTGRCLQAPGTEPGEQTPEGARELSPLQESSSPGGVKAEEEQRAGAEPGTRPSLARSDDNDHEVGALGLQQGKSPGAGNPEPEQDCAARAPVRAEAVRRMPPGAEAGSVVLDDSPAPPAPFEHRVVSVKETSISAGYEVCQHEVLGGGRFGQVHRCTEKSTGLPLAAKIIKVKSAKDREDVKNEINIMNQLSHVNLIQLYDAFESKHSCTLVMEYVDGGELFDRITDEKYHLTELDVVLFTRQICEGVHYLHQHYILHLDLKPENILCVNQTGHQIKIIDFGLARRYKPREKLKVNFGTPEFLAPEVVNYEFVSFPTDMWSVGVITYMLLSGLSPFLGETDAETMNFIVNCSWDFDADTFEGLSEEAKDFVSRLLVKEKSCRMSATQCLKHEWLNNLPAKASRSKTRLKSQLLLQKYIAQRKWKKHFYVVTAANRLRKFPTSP

T1 sequence (Q9H3Y6 whole entry): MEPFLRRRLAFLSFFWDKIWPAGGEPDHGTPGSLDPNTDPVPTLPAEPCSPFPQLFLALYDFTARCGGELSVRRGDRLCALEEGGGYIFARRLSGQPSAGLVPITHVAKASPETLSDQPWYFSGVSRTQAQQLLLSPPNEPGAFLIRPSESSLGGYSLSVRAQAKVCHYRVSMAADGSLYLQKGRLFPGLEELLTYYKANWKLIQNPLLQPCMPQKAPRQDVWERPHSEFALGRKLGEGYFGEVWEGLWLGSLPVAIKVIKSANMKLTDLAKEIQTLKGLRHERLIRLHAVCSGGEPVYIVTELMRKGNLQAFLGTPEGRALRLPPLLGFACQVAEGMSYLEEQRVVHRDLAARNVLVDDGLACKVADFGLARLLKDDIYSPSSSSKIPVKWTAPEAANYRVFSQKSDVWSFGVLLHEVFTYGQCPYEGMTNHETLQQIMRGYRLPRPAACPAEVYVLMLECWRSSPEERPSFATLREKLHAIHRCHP

Row | Compound | remaining activity at 5 µM [1] [%] | remaining activity at 5 µM [2] [%] | remaining activity at 5 µM [3] [%] | remaining activity at 5 µM [4] [%] | remaining activity at 5 µM [5] [%] | remaining activity at 5 µM [6] [%] | remaining activity at 5 µM [7] [%] | remaining activity at 10 µM ([1]; 10 uM) [%] | remaining activity at 10 µM ([2]; 10 uM) [%] | remaining activity at 10 µM ([3]; 10 uM) [%] | remaining activity at 10 µM ([4]; 10 uM) [%] | remaining activity at 10 µM ([5]; 10 uM) [%] | remaining activity at 10 µM ([6]; 10 uM) [%] | remaining activity at 10 µM ([7]; 10 uM) [%]
1 | O=C(Nc1cnn(-c2csc(C(=O)NC3COC3)c2)c1)Nc1ccccc1Cl [Compound 17, 4-(4-(3-(2-chlorophenyl)ureido)-1H-pyrazol-1-yl)-N-(oxetan-3-yl)thiophene-2-carboxamide] | 99.8 | 87.5 | 97.8 | 106 | 115 | 99.7 | 95.1 | – | – | – | – | – | – | –
2 | O=C(Nc1cnn(-c2csc(C(=O)NC3COC3)c2)c1)Nc1c(F)cccc1Cl [Compound 25, 4-(4-(3-(2-chloro-6-fluorophenyl)ureido)-1H-pyrazol-1-yl)-N-(oxetan-3-yl)thiophene-2-carboxamide] | 105 | 82.3 | 90.3 | 93.5 | 98.2 | 93.3 | 102 | – | – | – | – | – | – | –
3 | Cc1sc(C(=O)NC2COC2)cc1-n1cc(NC(=O)Nc2c(F)cccc2Cl)cn1 [Compound 27, 4-(4-(3-(2-chloro-6-fluorophenyl)ureido)-1H-pyrazol-1-yl)-5-methyl-N-(oxetan-3-yl)thiophene-2-carboxamide] | – | – | – | – | – | – | – | 104 | 64.5 | 99.8 | 97.2 | 88.5 | 88.9 | 112
